Columns and labels:
NIH3T3 cells = test: Myofibroblast differentiation in co-culture, αSMA and collagen I immunofluorescence; assay type: cell-based, murine
Method: (§1) Given that both MCs and fibroblasts are present in the TME, the consequences of MC activation on myofibroblasts was explored using a co-culture assay in which murine MC/9 MCs and NIH3T3 myofibroblasts were separated by a transwell chamber with micropores that only allowed chemical communication (FIG. 13A). In this system, degranulation efficiency was determined by measuring the concentration of β-hexosaminidase (β-hex) in the supernatant. MC degranulation was induced through exposure to compound 48/80 (C48/80), which binds to the MRGPRB2 receptor (the orthologue of the human G-protein-coupled receptor MRGPRX2). […] Co-cultures treated with a vehicle control and Triton X-100 were used as internal assay control to evaluate background and maximum β-hex release, respectively. Transforming growth factor (TGF)-β1 was used as a fibroblast activator due to its capacity to induce a myofibroblast phenotype of the NIH3T3 cells. MC/9 cells were cultivated with NIH3T3 cells for 24 hours and then treated with either ketotifen or TGFβ for additional 24 hours in low serum medium, followed by a 30 minute sensitization with C48/80.
To further explore the MC-fibroblast interaction, the differentiation process of NIH3T3 cells in the co-culture system was monitored by assaying levels of αSMA and collagen I, which are two markers of the myofibroblast phenotype, by immunofluorescence staining (FIG. 13C, FIG. 13D, and FIG. 13E).

murine MC/9 MCs = test: MC/9 - NIH3T3 transwell co-culture, mast cell degranulation by β-hexosaminidase release; assay type: cell-based; settings: 24 hours treatment, then 30 minute sensitization with C48/80
Method: as §1

MCA205 tumors = test: Ketotifen pretreatment with doxorubicin / anti-PD-L1, tumor growth; assay type: in vivo, mouse; settings: anti-PD-L1 10 mg/kg, doxorubicin 5 mg/kg i.p. days 7, 10, 13, ketotifen 10 mg/kg daily
Text: Daily ketotifen continued until completion of doxorubicin-anti-PD-L1 combination treatment.

MCA205 cells = test: Re-challenge of long-term survivors with MCA205 cells; assay type: in vivo, mouse; settings: re-challenge with 2.5×10^5 MCA205 cells s.c., 80 days after resection of primary tumors
Text: Since doxorubicin has potential to establish favorable immunogenic conditions within the TME, which could affect the efficacy of immunotherapy, it was investigated if this immune response is preserved against rechallenge of long-term survivors with the same cell line. Mice were considered long-term survivors if no tumor was detected 80 days after surgical resection of MCA205 primary tumors. Five long-term survivors from each treatment group were further re-challenged with 2.5×10^5 MCA205 cells injected subcutaneously into the flank region. Cells were prepared in 50 μl of PBS. Naïve mice were implanted in parallel as controls.

Row | Molecule | αSMA and collagen I protein expression (NIH3T3 cells; TGFβ alone) | αSMA and collagen I protein expression (NIH3T3 cells; TGFβ together with activated MCs) | MC degranulation (β-hex release) (murine MC/9 MCs) | tumor growth (relative growth, tumor mass day 16) (MCA205 tumors) | tumor development after re-challenge (mice out of five long-term survivors per group) (MCA205 cells)
1 | TGFβ: fibroblast activator inducing a myofibroblast phenotype of the NIH3T3 cells | no change was observed | significant increase | did not affect MC degranulation | – | –
2 | COc1cccc2c1C(=O)c1c(O)c3c(c(O)c1C2=O)C[C@@](O)(C(=O)CO)C[C@@H]3O[C@H]1C[C@H](N)[C@H](O)[C@H](C)O1 [doxorubicin] | – | – | – | Neither anti-PD-L1 nor doxorubicin monotherapies affected tumor growth | four mice
